Data published in ChEMBL document CHEMBL1201862, “PubChem BioAssay data set” (2004).
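Cells were grown in 96-well plates and exposed to each compound for 48 hours at five concentrations; endpoints were interpolated linearly between bracketing concentrations, or set to the highest concentration if not reached. GI50: concentration for 50% inhibition of growth.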 The source made the active and inactive calls. Cut-off read from the data, not from the text of the source: active = GI50 up to about 1.1 µM and inactive = higher.

What was measured:
Experiment in all cases: NCI-60 cell line screen, 48 h
786-0 = system: 786-0
A498 = system: A498
A549 = system: A549
ACHN = system: ACHN
BT-549 = system: BT-549
CAKI-1 = system: CAKI-1
CCRF-CEM = system: CCRF-CEM
COLO 205 = system: COLO 205
DU-145 = system: DU-145
EKVX = system: EKVX
HCC 2998 = system: HCC 2998
HCT-116 = system: HCT-116
HCT-15 = system: HCT-15
HL-60 = system: HL-60
HOP-62 = system: HOP-62
HOP-92 = system: HOP-92
HT-29 = system: HT-29
Hs-578T = system: Hs-578T
IGROV-1 = system: IGROV-1
K562 = system: K562
KM12 = system: KM12
LOX IMVI = system: LOX IMVI
M14 = system: M14
MCF7 = system: MCF7
MDA-MB-231 = system: MDA-MB-231
MDA-MB-435 = system: MDA-MB-435
MDA-N = system: MDA-N
MOLT-4 = system: MOLT-4
Malme-3M = system: Malme-3M
NCI-H226 = system: NCI-H226
NCI-H23 = system: NCI-H23
NCI-H460 = system: NCI-H460
NCI-H522 = system: NCI-H522
NCI/ADR-RES = system: NCI/ADR-RES
OVCAR-3 = system: OVCAR-3
OVCAR-4 = system: OVCAR-4
OVCAR-5 = system: OVCAR-5
OVCAR-8 = system: OVCAR-8
PC-3 = system: PC-3
RXF 393 = system: RXF 393
SF-268 = system: SF-268
SF-539 = system: SF-539
SK-MEL-2 = system: SK-MEL-2
SK-MEL-5 = system: SK-MEL-5
SK-OV-3 = system: SK-OV-3
SN12C = system: SN12C
SNB-19 = system: SNB-19
SNB-75 = system: SNB-75
SR = system: SR
SW-620 = system: SW-620
T47D = system: T47D
TK-10 = system: TK-10
U-251 = system: U-251
UACC-257 = system: UACC-257
UACC-62 = system: UACC-62
UO-31 = system: UO-31

COc1cc2ccc1OCc1cccc(n1)COc1ccc(cc1OC)/C=N\CCNCCNCC/N=C\2
GI50 (786-0): > 100 µM (inactive) | GI50 (A498): > 100 µM (inactive) | GI50 (A549): > 100 µM (inactive) | GI50 (ACHN): > 100 µM (inactive) | GI50 (BT-549): > 100 µM (inactive) | GI50 (CAKI-1): > 100 µM (inactive) | GI50 (CCRF-CEM): > 100 µM (inactive) | GI50 (COLO 205): > 100 µM (inactive) | GI50 (DU-145): > 100 µM (inactive) | GI50 (EKVX): > 100 µM (inactive) | GI50 (HCC 2998): > 100 µM (inactive) | GI50 (HCT-116): > 100 µM (inactive) | GI50 (HCT-15): > 100 µM | GI50 (HL-60): 53.5 µM (inactive) | GI50 (HOP-62): > 100 µM (inactive) | GI50 (HOP-92): > 100 µM (inactive) | GI50 (HT-29): > 100 µM (inactive) | GI50 (Hs-578T): > 100 µM (inactive) | GI50 (IGROV-1): > 100 µM (inactive) | GI50 (K562): > 100 µM (inactive) | GI50 (KM12): > 100 µM (inactive) | GI50 (LOX IMVI): > 100 µM (inactive) | GI50 (M14): > 100 µM (inactive) | GI50 (MCF7): 49 µM (inactive) | GI50 (MDA-MB-231): > 100 µM (inactive) | GI50 (MDA-MB-435): > 100 µM (inactive) | GI50 (MDA-N): > 100 µM (inactive) | GI50 (MOLT-4): 46.5 µM (inactive) | GI50 (Malme-3M): > 100 µM (inactive) | GI50 (NCI-H226): > 100 µM (inactive) | GI50 (NCI-H23): > 100 µM (inactive) | GI50 (NCI-H460): > 100 µM (inactive) | GI50 (NCI-H522): > 100 µM (inactive) | GI50 (NCI/ADR-RES): > 100 µM (inactive) | GI50 (OVCAR-3): > 100 µM (inactive) | GI50 (OVCAR-4): > 100 µM (inactive) | GI50 (OVCAR-5): > 100 µM (inactive) | GI50 (OVCAR-8): > 100 µM (inactive) | GI50 (PC-3): > 100 µM (inactive) | GI50 (RXF 393): > 100 µM (inactive) | GI50 (SF-268): > 100 µM (inactive) | GI50 (SF-539): > 100 µM (inactive) | GI50 (SK-MEL-2): > 100 µM (inactive) | GI50 (SK-MEL-5): > 100 µM (inactive) | GI50 (SK-OV-3): > 100 µM (inactive) | GI50 (SN12C): > 100 µM (inactive) | GI50 (SNB-19): > 100 µM (inactive) | GI50 (SNB-75): > 100 µM (inactive) | GI50 (SR): > 100 µM (inactive) | GI50 (SW-620): > 100 µM (inactive) | GI50 (T47D): > 100 µM (inactive) | GI50 (TK-10): > 100 µM (inactive) | GI50 (U-251): > 100 µM (inactive) | GI50 (UACC-257): > 100 µM (inactive) | GI50 (UACC-62): > 100 µM (inactive) | GI50 (UO-31): > 100 µM (inactive)
